One data set deals with Plasmodium falciparum. The following applies: ref [1]-[3]; cited from earlier work. The text has this:
During its life cycle, Plasmodium falciparum, the deadliest malaria parasite for humans, undergoes several successive rounds of mitosis to amplify parasite populations and consequently to increase the rate of its transmission. Among the essential actors in the growth and division of the parasite are kinases and phosphatases. […] Subsequently, the identification of kinases and phosphatases and their central functions in P. falciparum[4-9] ...

For another data set, the system named is 3D7 P. falciparum strain. The experiment in a line: Growth inhibition assay of P. falciparum 3D7 (SYBR Green I, flow cytometry). It counts as cell-based, Plasmodium falciparum. The protocol:
(§1) Assays were carried out in 96-well plates with a starting parasitemia of 0.5% at a haematocrit of 1% using SYBR Green I [81]. The peptides were added to the culture at different concentrations ranging from 80 μM to 1.25 μM (final concentrations) in a volume of 250 μl of RPMI-AlbuMAX (0.5%) and incubated for further 72 hr to allow all stages to complete at least one cycle. Cultures were stained for 30 minutes in the dark with SYBR Green I 1X (Invitrogen) diluted in 20 mM Tris pH8.8, 138 mM NaCl, and fixed with 1% paraformaldehyde. Fixed pRBC were stored at 4°C in the dark until flow cytometry analysis.
(§2) Parasite growth was assessed by flow cytometry on a FACSCalibur (Becton-Dickinson). Infected and uninfected erythrocytes were gated on the basis of their forward scatter (FSC) and side scatter (SSC) signals. Fluorescence analysis (Green fluorescence, FL-1 filter) was performed with CellQuest software (FACScan; BD Biosciences) on a total of 100,000 acquired events. Fluorescence was observed as described by Izumiyama et al.[82] on a two-parameters dot plot (FL1-SSC). Fluorescence of non-infected RBC was adjusted to plot between 10^0 and 10^1. Results are expressed in percentage of fluorescence among total RBC.
The drug concentration resulting in 50% inhibition of parasite growth (IC50) was assessed by determining the drug concentration corresponding to 50% of the parasitaemia observed in the peptide-free control wells. The IC50 value was calculated using the ICEstimator software based on a non-linear regression analysis of log-based dose–response curves. Results are presented as means ± sem.
Background: Flow cytometry measures light scatter and fluorescence of single cells or particles in a stream.

For another data set, the system named is HB3 P. falciparum strain. The experiment in a line: Growth inhibition assay of P. falciparum HB3 (SYBR Green I, flow cytometry). The format is cell-based, Plasmodium falciparum. The protocol:
as §1
as §2, with “RBC. […]” for “RBC.”

In data set [1] the target is His6-PfPP1 (Plasmodium falciparum).
Another data set concerns Xenopus oocytes. The experiment in a line: Induction of germinal vesicle breakdown (GVBD, G2/M transition) in microinjected Xenopus oocytes. The format is cell-based. The note with it: 100 ng injected; monitored 15 h; sets of 20 oocytes, repeated at least three times. The protocol:
Preparation of Xenopus oocytes and microinjection experiments were performed as previously described. Briefly, in each assay, 20 oocytes removed from at least two or three different animals were microinjected with His6-PfI2 (wild type, deleted or mutated) recombinant proteins or PfI2/PfI3 derived peptides. […] Okadaic acid was used as a positive control for ability of oocytes to respond to PP inhibition (data not shown). Regarding the pre-injection experiments, deleted, mutated His6-PfI2 proteins or PfI2/PfI3 derived peptides were pre-injected (100 ng) in the oocytes 1 hour before the His6-PfI2WT injection (100 ng). GVBD was detected by the appearance of a white spot at the apex of the animal pole after 15 hours. Oocyte extracts were prepared as follow: oocytes were lysed in buffer (50 mM HEPES pH 7.4, 500 mM NaCl, 0.05% SDS, 0.5% Triton X100, 5 mM MgCl2, 1 mg/ml bovine serum albumin, 10 μg/ ml leupeptin, 10 μg/ml aprotinin, 10 μg/ml soybean trypsin inhibitor, 10 μg/ml benzamidine, 1 mM PMSF, 1 mM sodium vanadate) and centrifuged at 4°C for 15 min at 10,000 g. To detect His6-PfI2 proteins in injected extracts, electrophoresis followed by western-blot analysis performed on oocytes extracts. The membranes were developed with anti-His mAb antibody (Qiagen).

Data set [2] concerns PfPP1. The experiment in a line: PfPP1 phosphatase activity assay with pNPP substrate. The note with it: recombinant PfPP1 pre-incubated 30 min at 37°C with different concentrations of protein before pNPP; maximal effect; means of four independent experiments in duplicate. It counts as biochemical, Plasmodium falciparum. The protocol: The activity of PfPP1 with p-nitro-phenylphosphate (pNPP) was assayed as previously described. To investigate the role of PfI2 recombinant proteins or PfI2/PfI3 derived peptides on His6-PfPP1 activity, different amounts of proteins were added to 1 μg of PfPP1 recombinant protein and preincubated for 30 min at 37°C before testing the PfPP1 phosphatase activity. Okadaic acid was used as control (data not show). Results are presented as mean of increase or decrease of phosphatase activity in comparison to His6-PfPP1 incubated in the reaction buffer.

Data set [3] concerns PfPP1. The experiment in a line: Yeast two-hybrid PfI2-PfPP1 interaction. The note with it: SD medium lacking leucine, tryptophan, histidine and adenine; 4 days. The format is binding, Plasmodium falciparum. From the text:
The full length PfPP1 was cloned into the pGBKT7 vector containing the DNA binding domain of gal4 (Gal4-BD) and wild-type, deleted or mutated PfI2 (PfI2WT, PfI2(1–94), PfI2(19–144), PfI2W16A, PfI2Y103A) into pGADT7 containing the gal4 activation domain (Gal4-AD). The pGBKT7-Gal4-BD-PfPP1 construct was used to transform Y187 strain and maintained on SD media without tryptophan (SD-W). The pGADT7-Gal4-AD-PfI2 constructs were used to transform AH 109 strain and maintained on SD media lacking leucine (SD-L). Mating these two haploid strains results in the formation of diploid strain, which is viable on SD media lacking leucine and tryptophan (SD-LW). Interaction of PfPP1 with the different versions of PfI2 proteins were evaluated by their capacity to grow on selective media: SD medium lacking leucine, tryptophan and histidine (SD-LWH) and SD medium lacking leucine, tryptophan, histidine and adenine (SD-LWHA) for 4 days. Yeasts transformed with empty vector or with pGBKT7 laminine were used as controls.

Where two headings read alike, the source gives them in different places. No end group written: not given here.

What is called IC50 is the midpoint of a concentration-inhibition curve.

In the case of `C=C1[C@@H](O)[C@@H]2O[C@]3(CC[C@H](/C=C/[C@@H](C)[C@@H]4CC(C)=C[C@@]5(O[C@H](C[C@@](C)(O)C(=O)O)CC[C@H]5O)O4)O3)CC[C@H]2O[C@@H]1[C@@H](O)C[C@H](C)[C@H]1O[C@@]2(CCCCO2)CC[C@H]1C` [okadaic acid], the “inhibition of parasite growth in vitro” value with Plasmodium falciparum is on record as “drastically inhibited parasite growth in vitro”.
Turning to VKKKKIKREIKIKVVRWKVVRW [P5], the IC50 amounted to 9.72 µM in the data set on 3D7 P. falciparum strain (72 hr, 7 independent experiments, 3 batches of peptide, means ± sem, read-out: 3D7 IC50) and 8.79 µM in the data set on HB3 P. falciparum strain (72 hr, 2 different batches, means ± sem, read-out: HB3 IC50). Also, the parasite growth inhibition entry in the data set on 3D7 P. falciparum strain (at 80 μM, 72 hr, blood stage 3D7, means of seven independent experiments in duplicate) was “up to 90%”.
As for VKKKKIKREIKIKKTISWKKTISW [P1], the IC50 in the data set on 3D7 P. falciparum strain (3D7 strain, 72 h) turned out to be 23.8 µM; in the data set on HB3 P. falciparum strain (HB3 strain, 72 h), 15 µM.

B1: His6-PfI2WT (natural protein)
chain: MKKKVDKSVTKKTISWDEVTINEQDKERGSRMKILEPNTPFNFILMDSASEDEASKYGDVKGSDEGQNNIADDLINKLNQLVEKQENKGVSNIDFKEKRKKHYNEYKMLQKLRKSGTLDDIDEEYKPDNKDSNCDNSNMNESEE
As for B1, the phosphatase activity of recombinant PfPP1 on pNPP after pre-incubation for 30 min at 37°C with different concentrations of PfI2WT; inhibition in data set [1] worked out at 80%.

B2: PfI2WT: wild-type recombinant His-tagged P. falciparum inhibitor-2, 144 amino acids (protein)
chain: B1 chain
modifications: left off: His6, end not stated, kept
Take B2: in the data set with Xenopus oocytes, the GVBD induced was ~ 85%. Further, the “decrease in PfPP1 phosphatase activity” value in the data set with PfPP1 [2] is “up to 80%”. Further, in the data set on PfPP1 [3], the “growth of diploid yeast with PfPP1 on SD-LWHA (stringent conditions)” value was “still able to grow”.

(Values after PMC3735429, “Plasmodium falciparum encodes a conserved active inhibitor-2 for Protein Phosphatase type 1: perspectives for novel anti-plasmodial therapy” (BMC Biology, 2013).)
